In PubChem BioAssay (NCI) one finds TGI data, which are given here for eight compounds.

The structures appear in SMILES notation.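 These data come from cells grown in 96-well plates and exposed to compound for 48 hours at five concentrations. Definition used: TGI = concentration required for complete inhibition of growth.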 Bounds are passed on as bounds.

The subject of one assay is SF-295 CNS. Nature of the assay: growth of human tumour cells (NCI), 48 h.
The compound `CCOc1ccc(NC(=O)CC2Sc3ccccc3NC2=O)cc1` (stereo not drawn) came in with a TGI of more than 100 µM.

`C#CCNC(=O)NC(CCCNC(=O)OCc1ccccc1)C(=O)OCc1ccccc1` (stereo not drawn): the TGI is more than 100 µM.

Compound `COC(=O)C(C#N)=C1c2ccccc2Oc2ccccc21` returned a TGI of more than 100 µM.

In turn, `O=C1NC(c2ccc(O)cc2)C2CCC1C2` (stereo not drawn) gave a TGI of more than 100 µM.

On to `CC(=O)OC1=C2CC3(C)OC(=O)CC(C)(C)C3=CC=C2C=C(C(C)C)C1=O` (stereo not drawn), for which the TGI was determined as 3.14 µM.

As for `COC(=O)C(=O)CC(=O)CCn1ncc(Cl)c(Cl)c1=O`, the TGI is 23 µM.

Take `CN(C)/C(=N/C(=S)Nc1ccccc1)SCc1ccccc1`: the TGI was more than 100 µM.

With `C=CCSC[C@H](NC(=O)COc1ccccc1)C(=O)NC(C(=O)OCc1ccc([N+](=O)[O-])cc1)=C(C)C`, the TGI was more than 100 µM.

The next assay has as its system NCI-H226 lung. The assay can be described thus: growth of human tumour cells (NCI), 48 h.
In the case of `CCOc1ccc(NC(=O)CC2Sc3ccccc3NC2=O)cc1` (stereo not drawn), the TGI was more than 100 µM.

On to `C#CCNC(=O)NC(CCCNC(=O)OCc1ccccc1)C(=O)OCc1ccccc1` (stereo not drawn), for which the TGI is more than 100 µM.

As for `COC(=O)C(C#N)=C1c2ccccc2Oc2ccccc21`, the TGI was more than 100 µM.

For the compound `O=C1NC(c2ccc(O)cc2)C2CCC1C2` (stereo not drawn), the TGI is more than 100 µM.

`CC(=O)OC1=C2CC3(C)OC(=O)CC(C)(C)C3=CC=C2C=C(C(C)C)C1=O` (stereo not drawn) displayed a TGI of 3.26 µM.

In turn, `COC(=O)C(=O)CC(=O)CCn1ncc(Cl)c(Cl)c1=O` yielded a TGI of 39.3 µM.

`CN(C)/C(=N/C(=S)Nc1ccccc1)SCc1ccccc1`: the TGI was more than 100 µM.

`C=CCSC[C@H](NC(=O)COc1ccccc1)C(=O)NC(C(=O)OCc1ccc([N+](=O)[O-])cc1)=C(C)C`: the TGI is more than 100 µM.

The test system of another assay is DLD-1 colon. The assay can be described thus: growth of human tumour cells (NCI), 48 h.
As to `CCOc1ccc(NC(=O)CC2Sc3ccccc3NC2=O)cc1` (stereo not drawn), the TGI is more than 100 µM.

For `C#CCNC(=O)NC(CCCNC(=O)OCc1ccccc1)C(=O)OCc1ccccc1` (stereo not drawn), the TGI is more than 100 µM.

Take `COC(=O)C(C#N)=C1c2ccccc2Oc2ccccc21`: the TGI was more than 100 µM.

`O=C1NC(c2ccc(O)cc2)C2CCC1C2` (stereo not drawn) came in with a TGI of more than 100 µM.

Regarding `CC(=O)OC1=C2CC3(C)OC(=O)CC(C)(C)C3=CC=C2C=C(C(C)C)C1=O` (stereo not drawn), the TGI amounted to 0.504 µM.

In the case of `COC(=O)C(=O)CC(=O)CCn1ncc(Cl)c(Cl)c1=O`, the TGI is 24.9 µM.

The compound `CN(C)/C(=N/C(=S)Nc1ccccc1)SCc1ccccc1` registered a TGI of more than 100 µM.

`C=CCSC[C@H](NC(=O)COc1ccccc1)C(=O)NC(C(=O)OCc1ccc([N+](=O)[O-])cc1)=C(C)C` showed a TGI of more than 100 µM.

A further assay has as its system RPMI-8226 leukemia. The assay can be described thus: growth of human tumour cells (NCI), 48 h.
In the case of `CCOc1ccc(NC(=O)CC2Sc3ccccc3NC2=O)cc1` (stereo not drawn), the TGI was more than 100 µM.

In the case of `C#CCNC(=O)NC(CCCNC(=O)OCc1ccccc1)C(=O)OCc1ccccc1` (stereo not drawn), the TGI was more than 100 µM.

`COC(=O)C(C#N)=C1c2ccccc2Oc2ccccc21` came in with a TGI of 49.3 µM.

With `O=C1NC(c2ccc(O)cc2)C2CCC1C2` (stereo not drawn), the TGI was more than 100 µM.

In turn, `CC(=O)OC1=C2CC3(C)OC(=O)CC(C)(C)C3=CC=C2C=C(C(C)C)C1=O` (stereo not drawn) had a TGI of 0.56 µM.

`COC(=O)C(=O)CC(=O)CCn1ncc(Cl)c(Cl)c1=O` registered a TGI of 52.6 µM.

For `CN(C)/C(=N/C(=S)Nc1ccccc1)SCc1ccccc1`, the TGI was more than 100 µM.

Take `C=CCSC[C@H](NC(=O)COc1ccccc1)C(=O)NC(C(=O)OCc1ccc([N+](=O)[O-])cc1)=C(C)C`: the TGI was more than 100 µM.

Another assay relates to SNB-75 CNS. Nature of the assay: growth of human tumour cells (NCI), 48 h.
Regarding `CCOc1ccc(NC(=O)CC2Sc3ccccc3NC2=O)cc1` (stereo not drawn), the TGI was 95 µM.

In the case of `C#CCNC(=O)NC(CCCNC(=O)OCc1ccccc1)C(=O)OCc1ccccc1` (stereo not drawn), the TGI is more than 100 µM.

In turn, `COC(=O)C(C#N)=C1c2ccccc2Oc2ccccc21` gave a TGI of more than 100 µM.

Take `O=C1NC(c2ccc(O)cc2)C2CCC1C2` (stereo not drawn): the TGI was more than 100 µM.

Regarding `CC(=O)OC1=C2CC3(C)OC(=O)CC(C)(C)C3=CC=C2C=C(C(C)C)C1=O` (stereo not drawn), the TGI stood at 1.99 µM.

As for `COC(=O)C(=O)CC(=O)CCn1ncc(Cl)c(Cl)c1=O`, the TGI came out at 35.6 µM.

In turn, `CN(C)/C(=N/C(=S)Nc1ccccc1)SCc1ccccc1` returned a TGI of more than 100 µM.

Take `C=CCSC[C@H](NC(=O)COc1ccccc1)C(=O)NC(C(=O)OCc1ccc([N+](=O)[O-])cc1)=C(C)C`: the TGI was more than 100 µM.

The subject of the next assay is SK-MEL-5 melanoma. Nature of the assay: growth of human tumour cells (NCI), 48 h.
As to `CCOc1ccc(NC(=O)CC2Sc3ccccc3NC2=O)cc1` (stereo not drawn), the TGI is more than 100 µM.

`C#CCNC(=O)NC(CCCNC(=O)OCc1ccccc1)C(=O)OCc1ccccc1` (stereo not drawn): the TGI is more than 100 µM.

Compound `COC(=O)C(C#N)=C1c2ccccc2Oc2ccccc21` displayed a TGI of more than 100 µM.

In the case of `O=C1NC(c2ccc(O)cc2)C2CCC1C2` (stereo not drawn), the TGI was more than 100 µM.

`CC(=O)OC1=C2CC3(C)OC(=O)CC(C)(C)C3=CC=C2C=C(C(C)C)C1=O` (stereo not drawn) came in with a TGI of 2.12 µM.

Compound `COC(=O)C(=O)CC(=O)CCn1ncc(Cl)c(Cl)c1=O` gave a TGI of 30.8 µM.

Take `CN(C)/C(=N/C(=S)Nc1ccccc1)SCc1ccccc1`: the TGI was more than 100 µM.

`C=CCSC[C@H](NC(=O)COc1ccccc1)C(=O)NC(C(=O)OCc1ccc([N+](=O)[O-])cc1)=C(C)C` returned a TGI of more than 100 µM.

Another assay concerns HL-60(TB) leukemia. Nature of the assay: growth of human tumour cells (NCI), 48 h.
On to `CCOc1ccc(NC(=O)CC2Sc3ccccc3NC2=O)cc1` (stereo not drawn), for which the TGI was more than 100 µM.

As for `C#CCNC(=O)NC(CCCNC(=O)OCc1ccccc1)C(=O)OCc1ccccc1` (stereo not drawn), the TGI stood at 59.3 µM.

The compound `COC(=O)C(C#N)=C1c2ccccc2Oc2ccccc21` had a TGI of 56.4 µM.

With `O=C1NC(c2ccc(O)cc2)C2CCC1C2` (stereo not drawn), the TGI is more than 100 µM.

`CC(=O)OC1=C2CC3(C)OC(=O)CC(C)(C)C3=CC=C2C=C(C(C)C)C1=O` (stereo not drawn) yielded a TGI of 0.888 µM.

Take `COC(=O)C(=O)CC(=O)CCn1ncc(Cl)c(Cl)c1=O`: the TGI turned out to be 9.68 µM.

Compound `CN(C)/C(=N/C(=S)Nc1ccccc1)SCc1ccccc1` gave a TGI of 51.4 µM.

`C=CCSC[C@H](NC(=O)COc1ccccc1)C(=O)NC(C(=O)OCc1ccc([N+](=O)[O-])cc1)=C(C)C` came in with a TGI of more than 100 µM.

A further assay deals with HCT-116 colon. Nature of the assay: growth of human tumour cells (NCI), 48 h.
Compound `CCOc1ccc(NC(=O)CC2Sc3ccccc3NC2=O)cc1` (stereo not drawn) gave a TGI of 76.2 µM.

Consider `C#CCNC(=O)NC(CCCNC(=O)OCc1ccccc1)C(=O)OCc1ccccc1` (stereo not drawn), for which the TGI is more than 100 µM.

Consider `O=C1NC(c2ccc(O)cc2)C2CCC1C2` (stereo not drawn), for which the TGI was more than 100 µM.

`CC(=O)OC1=C2CC3(C)OC(=O)CC(C)(C)C3=CC=C2C=C(C(C)C)C1=O` (stereo not drawn) showed a TGI of 1.35 µM.

As for `COC(=O)C(=O)CC(=O)CCn1ncc(Cl)c(Cl)c1=O`, the TGI came to 23.7 µM.

Turning to `C=CCSC[C@H](NC(=O)COc1ccccc1)C(=O)NC(C(=O)OCc1ccc([N+](=O)[O-])cc1)=C(C)C`, the TGI is more than 100 µM.

The next assay concerns LXFL 529 NSCLC. Nature of the assay: growth of human tumour cells (NCI), 48 h.
On to `CCOc1ccc(NC(=O)CC2Sc3ccccc3NC2=O)cc1` (stereo not drawn), for which the TGI was more than 100 µM.

Regarding `C#CCNC(=O)NC(CCCNC(=O)OCc1ccccc1)C(=O)OCc1ccccc1` (stereo not drawn), the TGI was more than 100 µM.

In the case of `COC(=O)C(C#N)=C1c2ccccc2Oc2ccccc21`, the TGI was 94.8 µM.

Regarding `O=C1NC(c2ccc(O)cc2)C2CCC1C2` (stereo not drawn), the TGI is more than 100 µM.

The compound `CC(=O)OC1=C2CC3(C)OC(=O)CC(C)(C)C3=CC=C2C=C(C(C)C)C1=O` (stereo not drawn) came in with a TGI of 0.299 µM.

For the compound `COC(=O)C(=O)CC(=O)CCn1ncc(Cl)c(Cl)c1=O`, the TGI amounted to 24.2 µM.

Regarding `CN(C)/C(=N/C(=S)Nc1ccccc1)SCc1ccccc1`, the TGI is more than 100 µM.

Turning to `C=CCSC[C@H](NC(=O)COc1ccccc1)C(=O)NC(C(=O)OCc1ccc([N+](=O)[O-])cc1)=C(C)C`, the TGI was more than 100 µM.

In another assay the test system is OVCAR-8 ovarian. Nature of the assay: growth of human tumour cells (NCI), 48 h.
`CCOc1ccc(NC(=O)CC2Sc3ccccc3NC2=O)cc1` (stereo not drawn) showed a TGI of 42.9 µM.

In turn, `C#CCNC(=O)NC(CCCNC(=O)OCc1ccccc1)C(=O)OCc1ccccc1` (stereo not drawn) showed a TGI of more than 100 µM.

For `COC(=O)C(C#N)=C1c2ccccc2Oc2ccccc21`, the TGI was more than 100 µM.

Compound `O=C1NC(c2ccc(O)cc2)C2CCC1C2` (stereo not drawn) came in with a TGI of more than 100 µM.

For `CC(=O)OC1=C2CC3(C)OC(=O)CC(C)(C)C3=CC=C2C=C(C(C)C)C1=O` (stereo not drawn), the TGI was 0.779 µM.

Take `COC(=O)C(=O)CC(=O)CCn1ncc(Cl)c(Cl)c1=O`: the TGI worked out at 27.9 µM.

In turn, `CN(C)/C(=N/C(=S)Nc1ccccc1)SCc1ccccc1` showed a TGI of more than 100 µM.

As for `C=CCSC[C@H](NC(=O)COc1ccccc1)C(=O)NC(C(=O)OCc1ccc([N+](=O)[O-])cc1)=C(C)C`, the TGI was more than 100 µM.
